Some test systems named below: HCC-2998 colon; PC-3 prostate; KM12 colon; HCT-116 colon; IGROV1 ovarian; K-562 leukemia; SF-295 CNS; RXF 393 renal; NCI-H23 lung; OVCAR-3 ovarian.
Common to all, as to assay: growth of human tumour cells (NCI), 48 h

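Test compounds were applied to cells in 96-well plates for 48 hours at 5 doses. GI50 is the concentration that inhibits growth by half. TGI is the concentration that stops growth completely.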 A value given as a limit tells only on which side of the number the result lay.

Take `O=C(Nc1ccc(Nc2ccc3c(c2)C(=O)c2ccccc2C3=O)c2c1C(=O)c1ccccc1C2=O)c1ccccc1`: the TGI was 86.9 µM in the test on HCC-2998 colon; over 100 µM in the test with PC-3 prostate; over 100 µM in the test with KM12 colon; over 100 µM in the test on HCT-116 colon; over 100 µM with IGROV1 ovarian; over 100 µM in the test on K-562 leukemia. Moreover, the TGI is over 100 µM in the test with SF-295 CNS, over 96.6 µM with RXF 393 renal, over 100 µM with NCI-H23 lung and over 100 µM with OVCAR-3 ovarian.

On to `CN1CCC2(CC1)C(=O)Nc1cc(NC(=O)c3ccc4c(c3)C[C@@H]3C(C)(C)[C@H](O)[C@H](F)C[C@@]3(C)O4)ccc12`, for which the GI50 with HCC-2998 colon is 14.2 µM; in the test on PC-3 prostate, 0.117 µM; in the test with KM12 colon, 1.38 µM; in the test on HCT-116 colon it was 1.35 µM; with IGROV1 ovarian, 13.1 µM; with K-562 leukemia it was 0.201 µM. The GI50 was 0.0495 µM in the test with SF-295 CNS, 0.0497 µM in the test on RXF 393 renal, 10.6 µM in the test with NCI-H23 lung and 18.5 µM in the test on OVCAR-3 ovarian. Further, the TGI is 48.3 µM in the test with HCC-2998 colon; over 100 µM with PC-3 prostate; 17.7 µM with KM12 colon; 17.2 µM with HCT-116 colon; over 100 µM in the test with IGROV1 ovarian; over 100 µM in the test on K-562 leukemia. For the same compound, the TGI in the test with SF-295 CNS is 0.256 µM; with RXF 393 renal, 10.6 µM; in the test with NCI-H23 lung, 42.5 µM; in the test on OVCAR-3 ovarian it was 66.8 µM.

For the compound `O=C(Nc1ccccc1/C=C/c1n[nH]c2ccccc12)c1ccccc1`, the GI50 with HCC-2998 colon was 1.62 µM; in the test on PC-3 prostate, 2.15 µM; in the test with KM12 colon it was 0.0648 µM; in the test on HCT-116 colon, 2.28 µM; with IGROV1 ovarian it was 6.47 µM; with K-562 leukemia it was 3.47 µM. In addition, the GI50 with SF-295 CNS is 2.13 µM; in the test with RXF 393 renal, 4.58 µM; in the test on NCI-H23 lung, 2.2 µM; with OVCAR-3 ovarian, 5.26 µM. For the same compound, the TGI with HCC-2998 colon amounted to 4.23 µM; with PC-3 prostate, 7.58 µM; in the test with KM12 colon it was 1.65 µM; with HCT-116 colon, 10.5 µM; with IGROV1 ovarian it was 22.4 µM; in the test with K-562 leukemia it was 12.6 µM. Moreover, the TGI in the test with SF-295 CNS was found to be 5.57 µM; in the test with RXF 393 renal, 17.3 µM; in the test with NCI-H23 lung, 17.6 µM; with OVCAR-3 ovarian it was 16.5 µM.

On to `COc1cc(OC)c(OC)cc1/C=C/c1ccccn1`, for which the TGI in the test with HCC-2998 colon, with PC-3 prostate, with KM12 colon, with HCT-116 colon, in the test on IGROV1 ovarian and with K-562 leukemia was over 10 µM in each case. In addition, the TGI with SF-295 CNS, in the test with RXF 393 renal, with NCI-H23 lung and with OVCAR-3 ovarian was over 10 µM throughout.

In the case of `CC(NC(=O)c1ccc(Cl)c(Cl)c1)c1ccc(-c2ccccc2)cc1` (stereo not given), the TGI in the test on HCC-2998 colon, in the test on PC-3 prostate, in the test on KM12 colon, in the test on HCT-116 colon, with IGROV1 ovarian and with K-562 leukemia was over 100 µM throughout. Also, the TGI is over 100 µM in the test on SF-295 CNS, 28 µM in the test with RXF 393 renal, over 100 µM with NCI-H23 lung and 66.2 µM with OVCAR-3 ovarian.

For `O=C(c1ccccc1)c1nc2ccc(Cl)cc2cc1C(Br)Br`, the TGI in the test with HCC-2998 colon was 2.88 µM; in the test on PC-3 prostate, 0.744 µM; in the test on KM12 colon, 1.06 µM; in the test with HCT-116 colon it was 0.34 µM; in the test on IGROV1 ovarian, 4.38 µM; in the test with K-562 leukemia it was 3.55 µM. Besides, the TGI with SF-295 CNS is 0.939 µM; in the test on RXF 393 renal it was 0.361 µM; with NCI-H23 lung it was 1.11 µM; in the test on OVCAR-3 ovarian, 0.856 µM.

On to `CCn1c(-c2nonc2N)nc2cnc(Oc3cccc(NC(=O)c4ccc(OCCN5CCOCC5)cc4)c3)cc21`, for which the GI50 with HCC-2998 colon is 15.2 µM; in the test with PC-3 prostate it was 2.88 µM; with KM12 colon, 7.63 µM; in the test with HCT-116 colon it was 1.81 µM; in the test with IGROV1 ovarian, 2.98 µM; with K-562 leukemia, 7.38 µM. Besides, the GI50 was 0.974 µM in the test on SF-295 CNS, 1.31 µM in the test on RXF 393 renal, 4.9 µM in the test with NCI-H23 lung and 7.17 µM in the test with OVCAR-3 ovarian. Further, the TGI in the test on HCC-2998 colon was over 25 µM; with PC-3 prostate, over 25 µM; with KM12 colon, over 25 µM; in the test on HCT-116 colon, over 25 µM; with IGROV1 ovarian, over 20.3 µM; with K-562 leukemia, over 25 µM. Further, the TGI is over 16.9 µM in the test with SF-295 CNS, 12.9 µM in the test with RXF 393 renal, over 25 µM in the test on NCI-H23 lung and over 25 µM with OVCAR-3 ovarian.

Values taken from PubChem BioAssay (NCI).
